These results are taken from patent US11554171B2, “Compounds and methods for the targeted degradation of bromodomain-containing proteins” (Arvinas Operations, Inc., priority 2015, dated 2023).

This assay relates to c-myc in 22RV-1 cells. In words: Human c-myc ELISA assay. The class given is cell-based. To be noted: Homo sapiens; for Emax: 22Rv1, 18 h, read-out: Degradation of BRD4: Maximum inhibition (%) c-Myc ELISA in 22RV1 cells; for DC50: 22Rv1, read-out: Degradation of BRD4: DC50 (uM) c-Myc ELISA in 22RV1 cells. The gist of the method:
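22RV-1 cells treated 18 h with 8-point 1:3 compound dilutions (final top 300 nM or 1 μM, 0.1% DMSO). Cells lysed in RIPA buffer with protease/phosphatase inhibitors, and c-myc protein in cleared lysate quantified by ELISA against a standard curve. DC50 reported for c-myc suppression.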
In general terms: In an ELISA, binding on a coated surface is turned into a signal by an enzyme label.

As to `Cc1ncsc1-c1ccc(CNC(=O)[C@@H]2C[C@@H](O)CN2C(=O)[C@@H](NC(=O)COCCOCCOCCOCCOc2ccc(NC(=O)C[C@@H]3N=C(c4ccc(Cl)cc4)c4c(sc(C)c4C)-n4c(C)nnc43)cc2)C(C)(C)C)cc1` [Example 12], the Emax worked out at 100% and the DC50 lay in the range of 0.01 to 0.1 µM.
In the same order, the values of `CC1=NN=C2C1c1sc(C)c(C)c1C(c1ccc(Cl)cc1)=N[C@H]2CC(=O)NCCOCCOCCC(=O)N[C@H](C(=O)N1C[C@H](O)CC1C(=O)N[C@@H](C)c1ccc(-c2scnc2C)cc1)C(C)(C)C` (stereo partly shown) [Example 136] are 96% and 0.01 to 0.1 µM.
In the same order, the values of `Cc1ncsc1-c1ccc([C@H](C)NC(=O)[C@H]2C[C@H](O)CN2C(=O)[C@@H](NC(=O)COCCCOCCNC(=O)C[C@@H]2N=C(c3ccc(Cl)cc3)c3c(sc(C)c3C)-n3c(C)nnc32)C(C)(C)C)cc1` [Example 72, (2R, 4S)-1-[(2S)-2-{2-[3-(2-{2-[(9S)-7-(4-chlorophenyl)-4,5,13-trimethyl-3-thia-1,8,11,12-tetraazatricyclo[8.3.0.0^2,^6]trideca-2(6),4,7,10,12-pentaen-9-yl]acetamido}ethoxy)propoxy]acetamido}-3,3-dimethylbutanoyl]-4-hydroxy-N-[(1S)-1-[4-(4-methyl-1,3-thiazol-5-yl)phenyl]ethyl]pyrrolidine-2-carboxamide] are 10.2% and over 1 µM.
In the same order, the values of `Cc1ncsc1-c1ccc([C@H](C)NC(=O)[C@@H]2C[C@@H](O)CN2C(=O)[C@@H](C(C)C)n2cc(-c3ccnc(O[C@H]4C[C@@H](NC(=O)C[C@@H]5N=C(c6ccc(Cl)cc6)c6c(sc(C)c6C)-n6c(C)nnc65)C4)c3)cn2)cc1` [Example 218, (2S,4R)-4-hydroxy-N-[(1S)-1-[4-(4-methyl-1,3-thiazol-5-yl)phenyl]ethyl]-1-[(2R)-3-methyl-2-(4-{2-1[(1,3-cis)-3-{2-[(9S)-7-(4-chlorophenyl)-4,5,13-trimethyl-3-thia-1,8,11,12-tetraazatricyclo[8.3.0.0^2,^6]trideca-2(6),4,7,10,12-pentaen-9-yl]acetamido}cyclobutoxy]pyridin-4-yl}-1H-pyrazol-1-yl)butanoyl]pyrrolidine-2-carboxamide] are 48% and over 1 µM.
With `Cc1ncsc1-c1ccc([C@H](C)NC(=O)[C@@H]2C[C@@H](O)CN2C(=O)[C@@H](NC(=O)c2cc3ccc(O[C@H]4C[C@@H](NC(=O)C[C@@H]5N=C(c6ccc(Cl)cc6)c6c(sc(C)c6C)-n6c(C)nnc65)C4)cc3o2)C(C)(C)C)cc1` [Example 212], the Emax turned out to be 95% and the DC50 is under 0.01 µM.
In the same order, the values of `Cc1ncsc1-c1ccc([C@H](C)NC(=O)[C@@H]2C[C@@H](O)CN2C(=O)[C@@H](NC(=O)/C=C/c2cc(O[C@H](C)CNC(=O)C[C@@H]3N=C(c4ccc(Cl)cc4)c4c(sc(C)c4C)-n4c(C)nnc43)ccc2F)C(C)(C)C)cc1` [Example 197] are 91.5% and under 0.01 µM.
In the same order, the values of `Cc1sc2c(c1C)C(c1ccc(Cl)cc1)=N[C@@H](CC(=O)N[C@H]1C[C@@H](Oc3cccc(-c4cnn([C@@H](C(=O)N5C[C@H](O)C[C@H]5C(=O)N[C@@H](C)c5ccc(-n6ccnc6C)cc5)C(C)C)c4)c3)C1)c1nnc(C)n1-2` [Example 298] are 25.5% and over 1 µM.
On to `Cc1ncsc1-c1ccc(CNC(=O)[C@@H]2C[C@@H](O)CN2C(=O)[C@@H](c2cc(OCCN3CC[C@H](NC(=O)C[C@@H]4N=C(c5ccc(Cl)cc5)c5c(sc(C)c5C)-n5c(C)nnc54)C3)no2)C(C)C)cc1` [Example 310], for which the Emax came out at 94% and the 50% degradation concentration (DC50) is under 0.01 µM.
In the same order, the values of `Cc1ncsc1-c1ccc([C@H](C)NC(=O)[C@@H]2C[C@@H](O)CN2C(=O)[C@@H](NC(=O)CCc2cc(F)cc(O[C@@H](C)CNC(=O)C[C@@H]3N=C(c4ccc(Cl)cc4)c4c(sc(C)c4C)-n4c(C)nnc43)c2)C(C)(C)C)cc1` [Example 200] are 96.5% and under 0.01 µM.
The like results for `Cc1ncsc1-c1ccc(CNC(=O)[C@@H]2C[C@@H](O)CN2C(=O)[C@@H](NC(=O)CCN2CCN(CCCNC(=O)C[C@@H]3N=C(c4ccc(Cl)cc4)c4c(sc(C)c4C)-n4c(C)nnc43)CC2)C(C)(C)C)cc1` [Example 102] were, in that order, 34.5% and over 1 µM.
The like results for `Cc1ncsc1-c1ccc(CNC(=O)[C@@H]2C[C@@H](O)CN2C(=O)[C@H](c2cc(OCCO[C@H]3C[C@@H](NC(=O)C[C@@H]4N=C(c5ccc(Cl)cc5)c5c(sc(C)c5C)-n5c(C)nnc54)C3)no2)C(C)C)cc1` [Example 316] were, in that order, 71.4% and 0.01 to 0.1 µM.
On to `Cc1ncsc1-c1ccc([C@H](C)NC(=O)[C@@H]2C[C@@H](O)CN2C(=O)[C@@H](NC(=O)c2cc3ccc(O[C@H]4C[C@H](NC(=O)C[C@@H]5N=C(c6ccc(Cl)cc6)c6c(sc(C)c6C)-n6c(C)nnc65)C4)cc3o2)C(C)(C)C)cc1` [Example 229], for which the Emax came out at 100% and the DC50 is under 0.01 µM.
In the same order, the values of `Cc1ncsc1-c1ccc([C@H](C)NC(=O)[C@@H]2C[C@@H](O)CN2C(=O)[C@@H](NC(=O)COc2ccnc(O[C@H]3C[C@@H](NC(=O)C[C@@H]4N=C(c5ccc(Cl)cc5)c5c(sc(C)c5C)-n5c(C)nnc54)C3)c2)C(C)(C)C)cc1` [Example 189] are 95.9% and 0.01 to 0.1 µM.
As to `Cc1ncsc1-c1ccc([C@H](C)NC(=O)[C@@H]2C[C@@H](O)CN2C(=O)[C@@H](C(C)C)n2cc(-c3ccnc(N4CCN(C(=O)C[C@@H]5N=C(c6ccc(Cl)cc6)c6c(sc(C)c6C)-n6c(C)nnc65)CC4)c3)cn2)cc1` [Example 323], the Emax came out at 43% and the DC50 was over 1 µM.
In the same order, the values of `Cc1ncsc1-c1ccc([C@H](C)NC(=O)[C@@H]2C[C@@H](O)CN2C(=O)C(C(C)C)n2cc(-c3cc(F)cc(O[C@H](C)CNC(=O)C[C@@H]4N=C(c5ccc(Cl)cc5)c5c(sc(C)c5C)-n5c(C)nnc54)c3)cn2)cc1` (stereo partly shown) [Example 213] are 94.3% and 0.01 to 0.1 µM.
For the molecule `Cc1ncsc1-c1ccc([C@H](C)NC(=O)[C@@H]2C[C@@H](O)CN2C(=O)[C@@H](NC(=O)CCc2ccnc(O[C@H]3C[C@H](NC(=O)C[C@@H]4N=C(c5ccc(Cl)cc5)c5c(sc(C)c5C)-n5c(C)nnc54)C3)c2)C(C)(C)C)cc1` [Example 192], the Emax is 93% and the half-maximal degradation concentration (DC50) was under 0.01 µM.
In the case of `Cc1ncsc1-c1ccc(CNC(=O)[C@@H]2C[C@@H](O)CN2C(=O)[C@H](c2cc(OCCC(F)(F)CCNC(=O)C[C@@H]3N=C(c4ccc(Cl)cc4)c4c(sc(C)c4C)-n4c(C)nnc43)no2)C(C)C)cc1` [Example 296, (2S,4R)-1-[(2S)-2-{3-[(5-{2-[(9S)-7-(4-chlorophenyl)-4,5,13-trimethyl-3-thia-1,8,11,12-tetraazatricyclo[8.3.0.0^2,^6]trideca-2(6),4,7,10,12-pentaen-9-yl]acetamido}-3,3-difluoropentyl)oxy]-1,2-oxazol-5-yl}-3-methylbutanoyl]-4-hydroxy-N-{[4-(4-methyl-1,3-thiazol-5-yl)phenyl]methyl}pyrrolidine-2-carboxamide], the Emax stood at 71.4% and the DC50 lay within 0.1 to 1 µM.
In the same order, the values of `Cc1sc2c(c1C)C(c1ccc(Cl)cc1)=N[C@@H](CC(=O)N[C@H]1C[C@@H](Oc3ccc4oc(C(=O)N[C@H](C(=O)N5C[C@H](O)C[C@H]5C(=O)N[C@@H](C)c5ccc(-c6nccn6C)cc5)C(C)(C)C)cc4c3)C1)c1nnc(C)n1-2` [Example 262] are 55.5% and 0.1 to 1 µM.
Turning to `Cc1ncsc1-c1ccc([C@H](C)NC(=O)[C@H]2C[C@@H](O)CN2C(=O)[C@@H](NC(=O)CN2CCC(O[C@H]3C[C@H](NC(=O)C[C@@H]4N=C(c5ccc(Cl)cc5)c5c(sc(C)c5C)-n5c(C)nnc54)C3)CC2)C(C)(C)C)cc1` [Example 347], the Emax was under 5% and the half-maximal degradation concentration (DC50) was over 1 µM.
The like results for `Cc1ncsc1-c1ccc(CNC(=O)[C@@H]2C[C@@H](O)CN2C(=O)[C@@H](NC(=O)CCN2CCN(CCNC(=O)C[C@@H]3N=C(c4ccc(Cl)cc4)c4c(sc(C)c4C)-n4c(C)nnc43)CC2)C(C)(C)C)cc1` [Example 103] were, in that order, 62.5% and 0.1 to 1 µM.
As for `Cc1ncsc1-c1ccc([C@H](C)NC(=O)[C@@H]2C[C@@H](O)CN2C(=O)[C@@H](NC(=O)CN2CCC(N3CCC(NC(=O)C[C@@H]4N=C(c5ccc(Cl)cc5)c5c(sc(C)c5C)-n5c(C)nnc54)CC3)CC2)C(C)(C)C)cc1` [Example 353, (2S,4R)-1-[(2S)-2-{2-[4-(4-{2-[(9S)-7-(4-chlorophenyl)-4,5,13-trimethyl-3-thia-1,8,11,12-tetraazatricyclo[8.3.0.0^2,6]trideca-2(6),4,7,10,12-[0261]pentaen-9-yl]acetamido}piperidin-1-yl)piperidin-1-yl]acetamido}-3,3-dimethylbutanoyl]-4-hydroxy-N-[(1S)-1-[4-(4-methyl-1,3-thiazol-5-yl)phenyl]ethyl]pyrrolidine-2-carboxamide], the Emax is over 90% and the DC50 lay within 0.1 to 1 µM.
With `CC(=O)N[C@H](C(=O)N1C[C@H](O)C[C@H]1C(=O)NCc1ccc(-c2scnc2C)cc1OCCOCCCOc1ccc(C2=N[C@@H](CC(=O)Nc3ccccc3)c3nnc(C)n3-c3sc(C)c(C)c32)cc1)C(C)(C)C` [Example 181, (2S,4R)-1-[(2S)-2-acetamido-3,3-dimethylbutanoyl]-4-hydroxy-N-{[4-(4-methyl-1,3-thiazol-5-yl)-2-[2-(3-{4-[(9S)-4,5,13-trimethyl-9-[(phenylcarbamoyl)methyl]-3-thia-1,8,11,12-tetraazatricyclo[8.3.0.0^2,^6]trideca-2(6),4,7,10,12-pentaen-7-yl]phenoxy}propoxy)ethoxy]phenyl]methyl}pyrrolidine-2-carboxamide], the Emax worked out at 80.5% and the DC50 lay within 0.1 to 1 µM.
In the same order, the values of `Cc1ncsc1-c1ccc(CNC(=O)[C@@H]2C[C@@H](O)CN2C(=O)[C@H](C(C)C)n2cc(-c3cccc(OCCNC(=O)C[C@@H]4N=C(c5ccc(Cl)cc5)c5c(sc(C)c5C)-n5c(C)nnc54)c3)cn2)cc1` [Example 163] are 96.5% and under 0.01 µM.

What is called DC50 is the midpoint of the concentration-degradation curve.
